Experimental data from patent publication EP1145714A1, “DRUGS” (Takeda Chemical Industries, Ltd., priority 1998, dated 2000).

Tests used:
[1] = system: acute and delayed vomiting induced by cisplatin in ferrets; assay: Acute and delayed vomiting induced by cisplatin in ferrets, oral dosing once or twice daily; format: in vivo; conditions: cisplatin 5 mg/kg i.p.; for Duration (in hour; mean ± SD) / Latency (in hour; mean ± SD) / On day 0 (0-24 hours): frequency of retching and vomiting (mean ± SD) / On day 0 (0-24 hours): number of ferrets with vomiting/ number of tested ferrets / On days 1-2(24-48 hours): frequency of retching and vomiting (mean ± SD) / On days 1-2(24-48 hours): number of ferrets with vomiting/ number of tested ferrets / Total frequency of retching and vomiting (on days 0~2; 0-72 hours): twice daily, under fasting
Method: Male 4 to 6 ferrets (1.2 to 2.2 kg) per one group were used. Cisplatin was intraperitoneally given at 5 mg/5ml/kg. 30 minutes prior to cisplatin administration and 24 and 48 hours after cisplatin administration, predetermined doses of the compound No. 3 were orally given in case of dosing once daily. 30 minutes prior to cisplatin administration and 12, 24, 36, 48 and 60 hours after cisplatin administration, predetermined doses of the compound No. 3 were orally given in case of dosing twice daily. 30 minutes prior to the dosing of the compound No. 3, a small amount of a feed was given to the animals in any of the cases. Similarly, a predetermined volume of 0.5 % methyl cellulose solution was similarly given orally to a control animal group under no fasting. A predetermined dose of ondansetron was orally given to the animals under fasting. To a control animal group of ondansetron, a predetermined volume of physiological saline was orally given to the animals under fasting. The frequency of vomiting was counted in number, up to 72 hours after cisplatin administration.
The compound No. 3 was suspended in 0.5 % methyl cellulose solution, for oral dosing at predetermined doses at a ratio of 1 ml per 1 kg body weight. An injection of ondansetron at 0.2 w/v % concentration was orally given at a predetermined volume. Additionally, 0.5 % methyl cellulose solution was orally given at a ratio of 1 ml per 1 kg body weight, while physiological saline was orally given at a ratio of 0.5 to 1.5 ml per 1 kg body weight. The data relating to the frequency of vomiting, the time period (latency) until first vomiting and the time period from the occurrence of vomiting to the termination thereof were statistically analyzed by the Dunnett test, with reference to the difference from the control group.
The acute vomiting suppression ratio, delayed vomiting suppression ratio and total vomiting suppression ratio were calculated by the following formula. [Frequency of retching or vomiting in control] - [Frequency of retching or vomiting in animals dosed with compound No. 3] / [Frequency of retching or vomiting in control] x 100 (%) [formula]

[2] = system: vomiting induced by a central emetic agent apomorphine in dogs; assay: Vomiting induced by apomorphine in dogs; format: in vivo, beagle dogs; conditions: 10 mg/kg p.o., apomorphine 0.1 mg/kg subcutaneous
Method: 3 male or female beagle dogs (7.8 to 15.9 kg) per one group were used. Apomorphine was subcutaneously given at 0.1 mg/ml/kg. 2.5 hours prior to apomorphine administration, a small amount of a feed was given to the animals. 30 minutes thereafter, predetermined doses of the compound No. 3 were orally given. Similarly, 0.5 % methyl cellulose solution was orally given to a control animal group under no fasting. A predetermined dose of ondansetron was given orally to the animals under fasting. The frequency of vomiting was counted in number, up to one hour after apomorphine administration. The compound No. 3 was dissolved in 0.5 % methyl cellulose solution, for oral dosing at a ratio of 1 ml per 1 kg • body weight. An injection of ondansetron at a concentration of 0.2% w/v was orally given. Additionally, 0.5 % methyl cellulose solution was orally given at a ratio of 1 ml per 1 kg • body weight. The data relating to the frequency of vomiting, the latency and the time period from the occurrence of vomiting to the termination thereof were statistically analyzed by the Dunnett test, with reference to the difference from the control group.
The vomiting suppression ratio was calculated by the following formula.

Cc1nccn1CC1CCc2c(c3ccccc3n2C)C1=O (centres unmarked) [Ondansetron, ondansetron, reference compound]
Acute vomiting suppression ratio (0 to 24 hours after cisplatin dosing) ([1]; 1 mg/kg p.o. twice daily): 0 % NS
Delayed vomiting suppression ratio (24 to 72 hours after cisplatin dosing) ([1]; 1 mg/kg p.o. twice daily): 0 % NS
Total vomiting suppression ratio (0 to 72 hours after cisplatin dosing) ([1]; 1 mg/kg p.o. twice daily): 0 % NS
Duration (in hour; mean ± SD) ([1]; 1 mg/kg × 2 p.o.): 56.5 ± 2.6 h
Latency (in hour; mean ± SD) ([1]; 1 mg/kg × 2 p.o.): 8.7 ± 0.9 h
On day 0 (0-24 hours): frequency of retching and vomiting (mean ± SD) ([1]; 1 mg/kg × 2 p.o.): 70.2 ± 25.2
On day 0 (0-24 hours): number of ferrets with vomiting/ number of tested ferrets ([1]; 1 mg/kg × 2 p.o.): 5/5
On days 1-2(24-48 hours): frequency of retching and vomiting (mean ± SD) ([1]; 1 mg/kg × 2 p.o.): 327.4 ± 88.8
On days 1-2(24-48 hours): number of ferrets with vomiting/ number of tested ferrets ([1]; 1 mg/kg × 2 p.o.): 5/5
Total frequency of retching and vomiting (on days 0~2; 0-72 hours) ([1]; 1 mg/kg × 2 p.o.): 397.6 ± 72.0
Acute vomiting suppression ratio (0 to 24 hours after cisplatin dosing) ([1]; 3 mg/kg p.o. twice daily): 58 % NS
Delayed vomiting suppression ratio (24 to 72 hours after cisplatin dosing) ([1]; 3 mg/kg p.o. twice daily): 32 % NS
Total vomiting suppression ratio (0 to 72 hours after cisplatin dosing) ([1]; 3 mg/kg p.o. twice daily): 36 % NS
Duration (in hour; mean ± SD) ([1]; 3 mg/kg × 2 p.o.): 44.2 ± 8.4 h
Latency (in hour; mean ± SD) ([1]; 3 mg/kg × 2 p.o.): 15.7 ± 5.6 h
On day 0 (0-24 hours): frequency of retching and vomiting (mean ± SD) ([1]; 3 mg/kg × 2 p.o.): 27.8 ± 13.1
On day 0 (0-24 hours): number of ferrets with vomiting/ number of tested ferrets ([1]; 3 mg/kg × 2 p.o.): 4/6
On days 1-2(24-48 hours): frequency of retching and vomiting (mean ± SD) ([1]; 3 mg/kg × 2 p.o.): 221.7 ± 62.9
On days 1-2(24-48 hours): number of ferrets with vomiting/ number of tested ferrets ([1]; 3 mg/kg × 2 p.o.): 6/6
Total frequency of retching and vomiting (on days 0~2; 0-72 hours) ([1]; 3 mg/kg × 2 p.o.): 249.5 ± 74.2
Effect on vomiting (in words) [2]: did not suppress
Vomiting suppression ratio [2]: 0 % NS
B: Frequency of vomiting (mean ± SD) ([2]; one hour): 13.7 ± 2.4
C: Time period until first vomiting (minute; mean ± SD) ([2]; one hour): 2.4 ± 0.6 min
D: Duration of vomiting (minute; mean ± SD) ([2]; one hour): 22.8 ± 3.6 min
Number of dogs with vomiting/number of tested dogs ([2]; one hour): 3/3
